Results on 32 compounds are retold here after US5200335A (Forschungszentrum Juelich GmbH, priority 1990, dated 1993).

Assay [1] addresses T1, phenylethanol dehydrogenase (Lentilactobacillus kefiri, UniProt Q6WVP7).
T1 sequence (Q6WVP7 2-252 limits assumed): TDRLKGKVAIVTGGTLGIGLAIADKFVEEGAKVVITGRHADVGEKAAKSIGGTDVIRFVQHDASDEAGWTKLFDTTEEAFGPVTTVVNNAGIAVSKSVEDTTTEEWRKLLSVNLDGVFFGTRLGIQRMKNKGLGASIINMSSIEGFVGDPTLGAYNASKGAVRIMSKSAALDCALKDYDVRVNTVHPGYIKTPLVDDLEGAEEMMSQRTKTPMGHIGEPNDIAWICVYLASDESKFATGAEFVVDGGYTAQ
As to the kind of experiment: Effect of metal cations, inhibitors and SH-protecting reagents on enzyme activity. Type of assay: biochemical, Lactobacillus kefir. The method, then:
Partially purified enzyme (after Mono-Q chromatography, concentrated 20-fold) was employed for the following tests.
(i) METAL CATIONS: The effect of Mg^2+, […] and Mn^2+ ions was investigated using the assay mixture detailed below. […]
(ii) INHIBITORS AND SH-[…]: An assay mixture according to Example 2 C(i) without added metal cations but with addition of various inhibitors or SH-[…] at a final concentration of 1 mM was used to determine the effect of certain enzyme inhibitors and SH-[…] on enzyme activity. […] Phenylmethanesulfonyl fluoride was dissolved in acetonitrile to a final concentration of acetonitrile of […]. Acetonitrile alone had no effect on the enzyme activity in control tests.

Assay [2] deals with T1, phenylethanol dehydrogenase. The assay is described as follows: NADPH-dependent reduction: substrate spectrum and dependence of reaction rate on acetophenone/NADPH concentration.
For assay [3] the target is unchanged. As to the kind of experiment: NADP+-dependent oxidation / reverse reaction with R(+)- or S(-)-phenylethanol. Conditions: for Enzyme activity (oxidation): 11 mM alcohol, pH 8.0, NADP+, 340 nm, 30° C.; for Stereospecificity / effect on the enzyme (in words): comparison of mixtures I, II and III; for Vmax: NADP+-dependent oxidations.
Method: The optimum pH for the reverse reaction, the oxidation of phenylethanol, was measured in an analogous manner. (±)-Phenylethanol (22 mM) was dissolved in aliquots of a 0.1M buffer and the pH was adjusted to a range from 4.0 to 10.0.
A third mixture containing 22 mM (±)-phenylethanol was employed for comparison. Enzyme activity was measured by photometry at 340 nm at 30° C.
The mark [4] stands for this setting: addition at final concentration 1 mM; 5.5 mM acetophenone, 0.2 mM NADPH, pH 7.0; partially purified enzyme.
Setting [5] is: pH 7; read-out: Activity remaining.
The mark [6] stands for this setting: pH 7, read-out: Activity remaining.
[7] abbreviates: NADPH-dependent reductions, pH 7.0, 0.2 mM NADPH, partially purified enzyme.
[8] abbreviates: NADPH-dependent reductions, […].

Entries after “also recorded” stand apart in the source; their conditions may differ. Read-outs that look alike come from different tables or passages of the source.

On to `O=S(=O)(F)Cc1ccccc1` [Phenylmethanesulfonyl fluoride], for which, in assay [1] (setting [4]), the Activity remaining worked out at 94%.

Consider `[Cl][Mn][Cl]` [MnCl2], for which the Activity remaining in assay [1] (setting [4]) is given as 114%.

A word on the remaining activity: it is the signal under treatment as a percentage of the control signal. Turning to `O[C@H](CS)[C@H](O)CS` (racemic) [Dithiothreitol], in assay [1] (setting [5]), the remaining activity at 1000 µM stood at 95%.

As for `O=C(O)CN(CCN(CC(=O)O)CC(=O)O)CC(=O)O` [EDTA], in assay [1], the “Effect on enzyme activity (in words)” value is “completely inhibited; also recorded: rapidly inactivated; also recorded: rapid inactivation”. Further, in assay [1] (setting [6]), the remaining activity at 1000 µM came out at 0%.

As for `CCCCCCC(C)=O` [Methyl hexyl ketone], the Vmax in assay [2] (setting [7]) stood at 91%. In assay [2] (in the presence of NADPH), the “Reduction by the enzyme (in words)” value is “capable of catalyzing the reduction; also recorded: capable of reducing”.

For the compound `[Cl-].[Cl-].[Mg+2]` [MgCl2], the Activity remaining in assay [1] (setting [4]) is 132%.

Turning to `O=C(O)c1cc[c]([Hg][OH])cc1` [p-Hydroxymercurybenzoate], the “Effect on enzyme activity (in words)” value in assay [1] is given as “relatively weak inhibition”. Further, in assay [1] (addition at final concentration 0.1 mM; 5.5 mM acetophenone, 0.2 mM NADPH, pH 7.0; partially purified enzyme), the Activity remaining was 92%.

As to `C[C@H](O)c1ccccc1` [Mixture II, S(-)-phenylethanol], in assay [3], the “Enzyme activity (oxidation)” value was 0 U/ml and the “Stereospecificity / effect on the enzyme (in words)” value is listed as “inhibits the enzyme”.

For Triton X-100, the Activity remaining in assay [1] (setting [4]) was 94%.

With `C[C@@H](O)c1ccccc1` [R(+)-Phenylethanol], in assay [3], the “Enzyme activity (oxidation)” value is on record as 3.5 U/ml, the Vmax came to 11% and the “Stereospecificity / effect on the enzyme (in words)” value was “highly specific”.

Turning to `CC(C)=O` [Acetone], the Vmax in assay [2] (setting [8]) is 96%. Also, the “Reduction by the enzyme (in words)” value in assay [2] (in the presence of NADPH) was “capable of catalyzing the reduction; also recorded: capable of reducing”.

Take `N[C@@H](CCC(=O)N[C@@H](CS)C(=O)NCC(=O)O)C(=O)O` [Glutathione]: the remaining activity at 1000 µM in assay [1] (setting [6]) amounted to 99%.

On to `CCCCCC(=O)CC` [Ethyl pentyl ketone], for which the Vmax in assay [2] (setting [7]) came to 66%. Moreover, the “Reduction by the enzyme (in words)” value in assay [2] (in the presence of NADPH) is listed as “capable of catalyzing the reduction; also recorded: capable of reducing”.

Consider `[Cl-].[Cl-].[Zn+2]` [ZnCl2], for which the Activity remaining in assay [1] (setting [4]) is 114%.

With `c1ccc(-c2ccccn2)nc1` [2,2'-Dipyridine], the “Effect on enzyme activity (in words)” value in assay [1] is recorded as “virtually no inhibition”. Also, the remaining activity at 1000 µM in assay [1] (setting [5]) was 106%.

On to `CC(=O)CCc1ccccc1` [4-Phenyl-2-butanone], for which the Vmax in assay [2] (setting [7]) is reported as 90%. Besides, the “Reduction by the enzyme (in words)” value in assay [2] (in the presence of NADPH) is given as “capable of catalyzing the reduction; also recorded: capable of reducing”.

With `CC(=O)c1ccc(Br)cc1` [4-Bromoacetophenone], in assay [2] (setting [8]), the Vmax was found to be 101%. In addition, in assay [2] (in the presence of NADPH, listed as p-bromoacetophenone), the “Reduction by the enzyme (in words)” value is “capable of catalyzing the reduction; also recorded: capable of reducing”.

For `CCN1C(=O)C=CC1=O` [N-Ethylmaleimide], the “Effect on enzyme activity (in words)” value in assay [1] is on record as “relatively weak inhibition”. For the same compound, the remaining activity at 1000 µM in assay [1] (setting [5]) stood at 81%.

`CC(=O)C(=O)c1ccccc1` [1-Phenyl-1,2-propanedione]: the Vmax in assay [2] (setting [8]) is given as 70%. Also, in assay [2] (in the presence of NADPH), the “Reduction by the enzyme (in words)” value is given as “capable of catalyzing the reduction; also recorded: capable of reducing”.

For the compound `CC(=O)c1ccccc1` [Acetophenone], in assay [2] (setting [7]), the Vmax is on record as 100%. The “Substrate concentration at maximum enzyme activity” value in assay [2] (acetophenone conversion, 0.2 mM NADPH, pH 7.0, 30° C.) was found to be 5.3 mM. Moreover, in assay [2] (at 5.3 mM acetophenone, 0.2 mM NADPH), the Maximum activity was 18.6 U/ml. In addition, in assay [2] (in the presence of NADPH), the “Reduction by the enzyme (in words)” value was “capable of catalyzing the reduction; also recorded: capable of reducing”. Also, in assay [2] (up to an acetophenone concentration of 10.6 mM), the Excess substrate inhibition result is “no excess substrate inhibition”.

Take `CC(=O)C(C)(C)C` [Pinacolone]: in assay [2], the “Reduction by the enzyme (in words)” value is reported as “capable of catalyzing the reduction; also recorded: capable of reducing”. For the same compound, the Vmax in assay [2] (pH 7) came out at 53%.

As for `c1cnc2c(c1)ccc1cccnc12` [1,10-Phenanthroline], in assay [1], the “Effect on enzyme activity (in words)” value is listed as “virtually no inhibition”. The remaining activity at 1000 µM in assay [1] (setting [5]) was determined as 99%.

For the compound `NC(=O)C1=CN([C@@H]2O[C@H](COP(=O)(O)OP(=O)(O)OC[C@H]3O[C@@H](n4cnc5c(N)ncnc54)[C@H](OP(=O)(O)O)[C@@H]3O)[C@@H](O)[C@H]2O)C=CC1` [NADPH], in assay [2] (5.3 mM acetophenone, pH 7.0, 30° C.), the “NADPH concentration at maximum enzyme activity” value stood at 190 µM. The Vmax in assay [2] (setting [7]) was determined as 100%. Further, the Maximum enzyme activity in assay [2] (at 190 μM NADPH, 5.3 mM acetophenone) turned out to be 16.9 U/ml.

In the case of `CC(=O)c1ccc(Cl)cc1` [4-Chloroacetophenone], the Vmax in assay [2] (setting [8]) is on record as 93%. Further, the “Reduction by the enzyme (in words)” value in assay [2] (in the presence of NADPH, listed as p-chloroacetophenone) is recorded as “capable of catalyzing the reduction; also recorded: capable of reducing”.

For the compound `CC(=O)c1ccc2ccccc2c1` [Methyl 2-naphthyl ketone], in assay [2] (setting [7]), the Vmax amounted to 11%.

On to `CC(C)O` [Isopropanol], for which, in assay [3], the Vmax was determined as 18%.

Consider `CCC(=O)c1ccccc1` [Propiophenone], for which the Vmax in assay [2] (setting [8]) is given as 43%. The “Reduction by the enzyme (in words)” value in assay [2] (in the presence of NADPH) was “capable of catalyzing the reduction; also recorded: capable of reducing”.

As to `CC(=O)C=C(C)C` [Mesityl oxide, 4-methyl-3-pentene-2-one], the Vmax in assay [2] (setting [8]) amounted to 12%.

For the compound `O=Cc1ccccc1` [Benzaldehyde], the Vmax in assay [2] (setting [8]) worked out at 10%.

On to `NC(=O)c1ccc[n+]([C@@H]2O[C@H](COP(=O)(O)OP(=O)(O)OC[C@H]3O[C@@H](n4cnc5c(N)ncnc54)[C@H](OP(=O)(O)O)[C@@H]3O)[C@@H](O)[C@H]2O)c1` [NADP^+], for which, in assay [3], the Vmax came out at 17%.

Turning to `NC(=O)CI` [Iodoacetamide], the “Effect on enzyme activity (in words)” value in assay [1] is on record as “relatively weak inhibition”. In assay [1] (setting [5]), the remaining activity at 1000 µM was determined as 90%.

A word on the Km: it is the substrate concentration at which the rate is half of its maximum. On to (±)-Methylcyclohexanone, for which, in assay [2] (setting [7]), the Km stood at 70 mM and the Vmax stood at 109%. Moreover, in assay [2] (in the presence of NADPH), the “Reduction by the enzyme (in words)” value is “capable of catalyzing the reduction; also recorded: capable of reducing”.
